# Data taken from the supplement of paper PMC13380429.
# Structures can show the parent of a compound that is named as a salt.
# What was measured:
# Conditions in all cases: 72 h
# HepG2 [1] = assay: drug sensitivity score (DSS) for viability; higher = more toxic; extreme values may be limits of the assay
# Calu-3 [2] = assay: as above
# Caco-2 [3] = assay: as above
# Vero E6 [4] = assay: as above
# U2OS [5] = assay: as above
# HepG2 [6] = assay: relative viability EC50 (midpoint between 100% and the lowest measured viability); higher = less toxic
# Caco-2 [7] = assay: as above
# Vero E6 [8] = assay: as above
# U2OS [9] = assay: as above
# HepG2 [10] = assay: cell viability relative to DMSO; higher = less toxic
# Calu-3 [11] = assay: as above
# Caco-2 [12] = assay: as above
# Vero E6 [13] = assay: as above
# U2OS [14] = assay: as above
# Calu-3 [15] = assay: relative viability EC50 (midpoint between 100% and the lowest measured viability); higher = less toxic
SMILES,drug sensitivity score (HepG2 [1]),drug sensitivity score (Calu-3 [2]),drug sensitivity score (Caco-2 [3]),drug sensitivity score (Vero E6 [4]),drug sensitivity score (U2OS [5]),relative viability EC50 (HepG2 [6]) [µM],relative viability EC50 (Caco-2 [7]) [µM],relative viability EC50 (Vero E6 [8]) [µM],relative viability EC50 (U2OS [9]) [µM],cell viability (HepG2 [10]; 1 nM) [%],cell viability (HepG2 [10]; 10 nM) [%],cell viability (HepG2 [10]; 100 nM) [%],cell viability (HepG2 [10]; 1000 nM) [%],cell viability (HepG2 [10]; 10000 nM) [%],cell viability (Calu-3 [11]; 1 nM) [%],cell viability (Calu-3 [11]; 10 nM) [%],cell viability (Calu-3 [11]; 100 nM) [%],cell viability (Calu-3 [11]; 1000 nM) [%],cell viability (Calu-3 [11]; 10000 nM) [%],cell viability (Caco-2 [12]; 1 nM) [%],cell viability (Caco-2 [12]; 10 nM) [%],cell viability (Caco-2 [12]; 100 nM) [%],cell viability (Caco-2 [12]; 1000 nM) [%],cell viability (Caco-2 [12]; 10000 nM) [%],cell viability (Vero E6 [13]; 1 nM) [%],cell viability (Vero E6 [13]; 10 nM) [%],cell viability (Vero E6 [13]; 100 nM) [%],cell viability (Vero E6 [13]; 1000 nM) [%],cell viability (Vero E6 [13]; 10000 nM) [%],cell viability (U2OS [14]; 1 nM) [%],cell viability (U2OS [14]; 10 nM) [%],cell viability (U2OS [14]; 100 nM) [%],cell viability (U2OS [14]; 1000 nM) [%],cell viability (U2OS [14]; 10000 nM) [%],relative viability EC50 (Calu-3 [15]) [µM]
CN[C@H]1CC[C@@H](c2ccc(Cl)c(Cl)c2)c2ccccc21 [SERTRALINE HYDROCHLORIDE],0.4,1.9,0.2,1.6,0.5,> 10,> 10,> 10,> 10,102,108,98.1,112,79.2,102,105,104,103,58.3,99.2,103,95.9,102,84.4,98.5,97.4,102,93.6,77.8,103,99.1,93,100,81.5,
Oc1ccc(Nc2nc(-c3ccc(Cl)cc3)cs2)cc1 [SKI-II],0,0.5,0,0,,> 10,> 10,> 10,,90.8,68.7,106,81.3,98,103,96.2,97.8,90.5,85.6,100,98.1,104,99.9,90,102,104,99.2,107,97.5,,,,,,> 10
CC(=O)Nc1ccc(C(=O)O)cc1 [acedoben],0,0,0,,0,> 10,> 10,,> 10,114,110,107,96.8,104,101,99.4,96.7,100,108,88.6,100,95.6,86.4,109,,,,,,97.4,104,97.3,98,102,> 10
C=CC[N@@+]12CC[C@@]34c5ccccc5N5/C=C6/[C@H]7C[C@H]8[C@@]9(CC[N@@+]8(CC=C)C/C7=C/CO)c7ccccc7N(/C=C(/[C@@H](C[C@@H]31)/C(=C\CO)C2)[C@H]54)[C@@H]69 [alcuronium],0,1,0,,0,> 10,> 10,,> 10,106,107,98.2,102,103,97.8,103,91.2,90.8,87.8,94.9,99.9,99.4,102,107,,,,,,102,99,101,99.7,103,> 10
O=C1C2CC=CCC2C(=O)N1SC(Cl)(Cl)Cl (centres undefined) [captan],3.1,0,0,,0,> 10,> 10,,> 10,101,93.1,85.8,86.3,82.1,99.9,99.6,102,106,99.4,102,102,101,98.6,88.9,,,,,,105,100,105,96.1,92.1,> 10
C[C@@H]1CC[C@@]2(OC1)O[C@H]1C[C@H]3[C@@H]4CC=C5C[C@@H](O[C@@H]6O[C@H](CO)[C@@H](O[C@@H]7O[C@@H](C)[C@H](O)[C@@H](O)[C@H]7O)[C@H](O)[C@H]6O[C@@H]6O[C@@H](C)[C@H](O)[C@@H](O)[C@H]6O)CC[C@]5(C)[C@H]4CC[C@]3(C)[C@H]1[C@@H]2C [dioscin],9.2,8.7,9.1,9.7,,1.59,1.56,1.42,,96.8,97.5,90.1,76.2,-0.2,96.7,89.7,97.9,79.3,2.9,97.9,92.6,95.2,75.9,2.3,97,103,98.4,71.1,0.9,,,,,,1.68
C/C1=C/C[C@@H](/C(C)=C/c2csc(C)n2)OC(=O)C[C@H](O)C(C)(C)C(=O)[C@H](C)[C@@H](O)[C@@H](C)CCC1 [epothilone-D],31.7,14.8,17.4,21.5,29.4,0.0074,0.0202,0.0363,0.0075,91.8,50.6,22.2,15.8,22.2,110,84,61.9,55.2,54.1,101,83.1,53.9,46.3,56.9,99.8,83.9,45.1,25.3,46.8,97.6,53.1,29.5,23.2,41.5,
C[C@]12CC[C@@H]3c4ccc(O)cc4CC[C@H]3[C@@H]1CC[C@@H]2OC(=O)CCC1CCCC1 [estradiol-cypionate],0,0,0,,0,> 10,> 10,,> 10,103,96.5,105,95.8,98.8,82,90.4,103,93,102,99.9,106,85.4,97.2,90,,,,,,99.6,104,99.2,100,96.7,> 10
CC[C@@]1(O)C(=O)OCc2c1cc1n(c2=O)Cc2c-1nc1cc(F)c(C)c3c1c2[C@@H](N)CC3 [exatecan-mesylate],36.4,,25.8,20.5,20.9,0.0038,0.0178,0.158,0.127,65.8,40.5,20.8,2.3,3.9,,,,,,90.7,72.7,32.7,21,20.7,110,91.8,60.6,15.9,0.4,102,92,56.9,17,4.1,
CCCCCN(C)CCC(O)(P(=O)(O)O)P(=O)(O)O [ibandronate],0,0,0,,,> 10,> 10,,,111,98,112,106,117,96.4,111,96,106,107,97,111,106,106,94.5,,,,,,,,,,,> 10
COC(F)(F)C(Cl)Cl [methoxyflurane],0,,0,0,0,> 10,> 10,> 10,> 10,103,96.3,100,94,109,,,,,,96.2,98.1,96.9,99.8,94.4,104,102,103,96.7,96.3,99.8,97.3,98.5,95.3,100,
O=C(O)c1ccccc1S [o-mercapto-benzoic-acid],0,,0,0,0,> 10,> 10,> 10,> 10,99.7,91.5,89.9,101,112,,,,,,98,87.2,86.4,102,99.4,92.2,97.9,96.2,105,106,97.9,94.1,95.9,94.8,109,
CN1C(C)(C)CCCC1(C)C [pempidine],0.1,0,0,0,,> 10,> 10,> 10,,96,103,98.1,105,84.7,114,105,98.3,107,110,102,89.1,95.1,99.5,109,97.4,100,95.1,95.7,94.4,,,,,,> 10
CCn1cc(C(=O)O)c(=O)c2cnc(N3CCCC3)nc21 [piromidic-acid],0,0,0,,0,> 10,> 10,,> 10,93,104,96.9,103,99.3,101,74.8,95.1,87,98.6,103,90.3,97.6,97.1,93.7,,,,,,99.8,98,100,99.1,102,> 10
CCC(NC(C)C)C(O)c1ccc(O)c2[nH]c(=O)ccc12 (centres undefined) [procaterol],0,0,0,,0,> 10,> 10,,> 10,110,93.9,103,97.4,95.4,92.1,104,105,110,95.9,84.2,107,89.9,99.6,92.8,,,,,,101,105,96,104,101,> 10
O=C1NC(=O)[C@@H](c2cn3c4c(cccc24)CCC3)[C@@H]1c1c[nH]c2ccccc12 [tivantinib],11.1,5.3,7.7,12.7,10.1,0.311,0.688,0.331,0.648,108,96.5,99.5,39.5,41.5,98.3,94.1,98.9,72.6,59.6,107,94.3,103,60.2,44.7,97.3,99.8,92.8,36.5,28.2,102,102,95.1,51.9,26.2,
